Where two headings read alike, the source gives them in different places.
How the values were obtained:
[1] = test system: p53 in primary MEFs; test: p53 protein level by western blot (screen)
Method: Cells were lysed in TNEN buffer (50 mM Tris, 150 mM NaCl, 5 mM EDTA, 0.5% NP-40, and 0.1% Triton X-100) supplemented with 1 mM NaF, Na2VO3, 1 mM PMSF, and 1 μg/ml of aprotonin, leupeptin, and pepstatin A. Protein concentrations were determined using a Bio-Rad assay. Proteins were resolved by SDS-PAGE and transferred to polyvinylidene difluoride membranes (Millipore).

[2] = test system: tumors derived from HCT116; test: HCT116 carcinoma xenograft in nude mice; type: in vivo, mouse; details: 2.5mg/kg for 7 days
Method: Male BALB/cASlac-nude mice (4-week-old) were purchased from Shanghai Slac Laboratory Animal C. LTD. The mice were kept in the SPF mouse facility for 1 week before being inoculated with HCT116 cells. HCT116 cells were harvested by trypsinization, counted and resuspended in PBS at the concentration of 5×10^7/ml. We injected subcutaneously 3×10^6 cells to BALB/cASlac nude mice's back. After 2 weeks, the mice were divided into 3 groups (6 mice per group) and were treated with 5-Iodotubercidin (Itu), Bisindolylmaleimide IX or solvent (PBS). The mice were weighed and the size of tumor measured. The length (L) and width (W) of the tumor were measured with a digital caliper and expressed as tumor volume (0.5L×W^2, mm^3).

[3] = test system: γH2AX foci in MEFs; test: γH2AX DNA damage foci, immunofluorescent staining; type: cell-based, mouse; details: 2.5 μM, 4 hrs
Method: MEFs or HCT116 cells were cultured on cover slips while Baf3 cells were cultured on slides coated by 0.1mg/ml poly-L-lysine, washed with phosphate-buffered saline (PBS) twice, and then fixed in 4% paraformaldehyde (PFA), which were permeabilized with 0.1% Triton X in PBS for 30 minutes at room temperature. The primary antibodies were diluted in PBS with 1% BSA (1:200). The slides were blocked (1% BSA in PBS) for 60 minutes at room temperature, incubated with primary antibodies overnight at 4°C, and followed by secondary antibody incubation for 60 min at RT. The slides were then mounted and observed under confocal microscope (Leica, Germany). Antibodies against γH2AX were from Bethyl Corporation.

[4] = test system: BCR-ABL BaF3 cells
[5] = test system: K562 cells; test: Wst-1 cell survival assay; details: K562, Wst-1
Method: We then evaluated the cytotoxic effect of Bisindolylmaleimide IX in MEFs and HCT116 cells. Different doses of Bisindolylmaleimide IX were applied to the cell cultures and cell survival rates and IC50 were determined with Wst-1 assay.
To measure cell survival rates after Bisindolylmaleimide IX treatment, cells were plated at 1×10^4 in 96 well plates and cultured for overnight, which were then treated with Bisindolylmaleimide IX for 48 hrs. Cell proliferation reagent WST-1 (Roche) was added to each well and was further incubated for 4 hrs at 37°C. The absorbance was measured against a control using microplate reader at 440 nm. The reference wavelength was 630 nm.

[6] = test system: K562, HL-60, MCF7, U251, AGS, MGC-803, U2OS and Saos-2 cells; type: cell-based
Text: The reference wavelength was 630 nm.
www.impactjournals.com/oncotarget/ Oncotarget, Supplementary Materials 2016 […]

[7] = test system: B-Raf in BCR-ABL positive BaF3 cells; test: B-Raf phosphorylation, western blot; type: cell-based, murine
Method: Activation and expression of Erk, Mek1, and Raf were determined by western blot. B. Inhibition of Erk decreased the cell survival rates in BaF3 cells expressing BCR-ABL compared to control cells. […] C. […] N=3. Right panel: Western blot results showing that B-Raf was knocked down in these cells.

How did the p53 protein up-regulation [1] turn out when `CCCCCCCCCCCCCCCC(=O)OC(CC(=O)O)C[N+](C)(C)C.[Cl-]` (racemic) [Palmitoyl-DL-carnitine Cl] was run?
Its p53 protein up-regulation is “failed to up-regulate p53 in MEFs”.

Which tumor growth [2] does the source give for `Nc1ncnc2c1c(I)cn2[C@@H]1O[C@H](CO)[C@@H](O)[C@H]1O` [5-Iodotubercidin] here?
Its tumor growth is “greatly inhibited tumor growth”.

And the p53 protein up-regulation [1]?
Its p53 protein up-regulation is “up-regulate p53 at the protein levels”.

How did the p53 protein up-regulation [1] turn out when `CN(C)CCCn1cc(C2=C(c3c[nH]c4ccccc34)C(=O)NC2=O)c2ccccc21` [Bisindolylmaleimide I] was run?
Its p53 protein up-regulation is “failed to up-regulate p53 in MEFs”.

And the γH2AX foci formation [3]?
Its γH2AX foci formation is “minimal numbers of foci”.

What does the source list for `Cn1cc(C2=C(c3cn(C4CCN(Cc5ccccn5)CC4)c4ccccc34)C(=O)NC2=O)c2ccccc21` [Enzastaurin]?
cytotoxic effect (in words) ([4]; BCR-ABL BaF3, 24 hrs, compared among bisindolylmaleimide derivatives): modest cytotoxic effect; cytotoxicity (in words) [5]: modest cytotoxic effect; γH2AX foci formation [3]: minimal numbers of foci

For `CC1CNCCN1S(=O)(=O)c1cccc2cnccc12` (stereo not drawn) [H-7], which p53 protein up-regulation [1] is on record?
Its p53 protein up-regulation is “failed to up-regulate p53 in MEFs”.

For `NCCNS(=O)(=O)c1cccc2cnccc12` [H-9], which p53 protein up-regulation [1] is on record?
Its p53 protein up-regulation is “failed to up-regulate p53 in MEFs”.

For `COCc1cc(O)c(O)c(O)c1-c1c(COC)cc(O)c(O)c1O` [HBDDE], which p53 protein up-regulation [1] is on record?
Its p53 protein up-regulation is “failed to up-regulate p53 in MEFs”.

With `Cc1cc(O)c2c(=O)c3c(O)cc(O)c4c5c(O)cc(O)c6c(=O)c7c(O)cc(C)c8c1c2c(c34)c(c78)c65` [Hypericin] as the molecule, how does the p53 protein up-regulation [1] read?
Its p53 protein up-regulation is “failed to up-regulate p53 in MEFs”.

Which “cytotoxic effects across cell lines (in words)” value [6] does the source give for `Cc1ccc(NC(=O)c2ccc(CN3CCN(C)CC3)cc2)cc1Nc1nccc(-c2cccnc2)n1` [Imatinib] here?
The value was “specificity to BCR-ABL positive cells”.

`CC(=O)c1c(O)c(C)c(O)c(Cc2c(O)c3c(c(C(=O)/C=C/c4ccccc4)c2O)OC(C)(C)C=C3)c1O` [Rottlerin] was tested. Which p53 protein up-regulation [1] did it give?
The p53 protein up-regulation was “failed to up-regulate p53 in MEFs”.

`CCCCCCCCCCCCC/C=C/[C@@H](O)[C@@H](N)CO` [Sphingosine] was tested. Which p53 protein up-regulation [1] did it give?
Its p53 protein up-regulation is “failed to up-regulate p53 in MEFs”.

`N#CC(=C(/N)Sc1ccccc1N)/C(C#N)=C(/N)Sc1ccccc1N` [U0126] was tested. Which “cell death rates in BCR-ABL expressing BaF3 cells versus control cells” value ([4]; inhibition of Erk) did it give?
The value was “increased cell death rates”.

`COc1cccc2c1C(=O)c1c(O)c3c(c(O)c1C2=O)C[C@@](O)(C(=O)CO)C[C@@H]3O[C@H]1C[C@H](N)[C@H](O)[C@H](C)O1` [doxorubicin] was tested. Which “phosphorylation of B-Raf” value [7] did it give?
Its value is “did not affect the phosphorylation of B-Raf”.

Which p53 protein up-regulation [1] does the source give for `CN[C@@H]1C[C@H]2O[C@@](C)([C@@H]1OC)n1c3ccccc3c3c4c(c5c6ccccc6n2c5c31)C(=O)NC4` [staurosporine] here?
Its p53 protein up-regulation is “failed to up-regulate p53 in MEFs”.

And the “cytotoxic effects across cell lines (in words)” value ([6]; 24 hrs, Wst-1)?
The value was “strong cytotoxic effects in almost all these cell lines”.

`COc1cc([C@@H]2c3cc4c(cc3[C@@H](O[C@@H]3O[C@@H]5CO[C@@H](c6cccs6)O[C@H]5[C@H](O)[C@H]3O)[C@H]3COC(=O)[C@H]23)OCO4)cc(OC)c1O` [teniposide] was tested. Which “survival of BCR-ABL positive BaF3 cells compared with control cells” value ([4]; 24 hrs, Wst-1) did it give?
Its value is “increased survival”.

What about the “phosphorylation of B-Raf” value [7] of the same molecule?
The value was “did not affect the phosphorylation of B-Raf”.
